Source: US20080113938A1, “ACCELERATOR FOR MINERAL ABSORPTION AND USE THEREOF” (KABUSHIKI KAISHA HAYASHIBARA SEIBUTSU KAGAKU KENKYUJO, priority 2003, published 2008)
Marks after values point to notes of the source that are not given here.

Legend:
femur = experiment: Dry weight, ash, calcium, magnesium and phosphorus of the femur of rats; type: in vivo, Wister rats
Source text: Forty of Wister rats weighing 110 to 120 g (five-weeks aged male, commercialized by Charles River Japan Inc., Yokohama, Japan) were bred with a feed containing ingredients (%) shown in Table 1 for one week in order to be familiarized. The familiarized rats were randomly divided into four groups with ten rats each. Each group was experimentally bred for eight weeks with either a feed without cyclic tetrasaccharide shown in Table 1 (hereinafter, it is called as “basic feed”), or another feed of basic feed supplemented with 1%, 2% or 5% on a dry solid basis, of cyclic tetrasaccharide in a crystalline anhydrous powder form with a purity of 99.5%, prepared in the following Example A-3. These basic feed and three kinds of feeds with cyclic tetrasaccharide were prepared to contain 44.75% of the total amount of cyclic tetrasaccharide and corn starch in each feed. From one week before the end of the breeding test, in order to determine the metabolism of calcium, magnesium, iron, sodium, potassium and phosphorus (hereinafter, may be called “minerals” in all), rats in the all groups were fed with the four types of feeds supplemented with 0.5% of chromium oxide as a non-absorbed marker for the minerals. The rats were bred at 25° C. in a manner of freely allowing to take feeds and water under a condition of 12 hours regular interval between of light and shade. After completion of experimental breeding, all rats were individually weighed to calculate the average of weight and further calculate the rate of increased weight for each group.
Two days before the end of the breeding test, rats were placed into a gauge for measuring metabolism to collect their excrement in two days. The resulting excrement was subjected to the measurement of the contents of cyclic tetrasaccharide, each mineral, and chromium. After the breeding test, the rats were anatomized in an anesthetized condition to take out their alimentary canals including jejunum, intestinum ileum, appendix and colon/rectum. After the resulting alimentary canals were weighed, their contents were also weighed and subjected to the measurement of the amount of cyclic tetrasaccharide, minerals and chromium. The rats, which had been taken out their alimentary canals, were dislocated at their cervical vertebrae and taken out their femurs from right legs. The resulting femurs were subjected to the measurement of the amount of ashes, calcium, magnesium and phosphorus. The following(s) explain the methods of quantitative analysis of cyclic tetrasaccharide and the methods of measurement of minerals and chromium.
Two grams of a feed was preciously weighed in a porcelain crucible, heated to carbonize, and heated at 600° C. to incinerate. After weighed, the resulting test samples were admixed with hydrochloric acid in a precious analysis grade (concentration of 20%, commercialized by Wako Pure Chemicals, Co., Ltd., Osaka, Japan) to give a final concentration of 1%. They were subjected to atomic absorption spectrometry (“Zeeman5100™”, commercialized by PerkinElmer); in the case of measurement of chromium, they were subjected to a flameless type one. In the case of measurement of phosphorus, they were subjected to usual molybdenum blue absorptiometry. On the other hand, 0.1 g of each of the contents of jejunum, intestinum ileum, appendix, colon/rectum, and excrement was subjected to wet-type incineration to prepare test samples similarly as in the above case of feed, and the test samples were quantified. The right femurs taken out from the anatomized rats were dried at 105° C. for 15 hours and measured as a dry weight. The resulting dried femurs were precisely weighed in a porcelain crucible, and incinerated similarly as in the case of the feed. The resultants were weighed and quantified for calcium, magnesium and phosphorus.

[1] = test system: reversed canal sac of colon/rectum; experiment: Calcium absorption in reversed canal sac, colon/rectum; type: cell-based, Wister rats
Procedure: (§1) Experiment 1 confirmed that cyclic tetrasaccharide promotes mineral absorption in alimentary canal of rat concretely in intestinum ileum or its upper alimentary canal. The following experiment was carried out in order to determine a part of alimentary canal, cyclic tetrasaccharide acts on to promote mineral absorption. Twenty heads of Wister rats (nine week aged male, commercialized by Charlesriver Corporation, Kanagawa, Japan) were bred for three days with a usual solid feed for rats. Under the anesthetization with ether, alimentary canal was taken out from each rat which had been bled from a jugular vein and treated by abdominal operation. Each alimentary canal was divided into jejunum, intestinum ileum and colon/rectum and washed with physiological saline to remove the content. The resulting jejunum specimen, intestinum ileum specimen or colon/rectum specimen was cut off to prepare each midsection sized with about 10 cm in length. The resulting midsection of each specimen was reversed using a glass rod and immersed in a physiological saline babbled with gas consisting of 95% oxygen and 5% carbon dioxide. The resultant was cut into pieces sized with 5 cm in length and each piece was tied with a suture thread at both ends to prepare a reversed canal sac, and injected with about 0.5 ml of an internal sac solution containing 30 mM Tris-HCl buffer (pH7.4), 125 mM sodium chloride, 4 mM potassium chloride, 10 mM glucose and 1.25 mM calcium chloride (dihydrate) with a syringe and weighed. The resulting sac was immersed in an external sac solution (being bubbled with the gas consisting of 95% oxygen and 5% carbon dioxide) containing 50 mM, 100 mM or 200 mM of the same cyclic tetrasaccharide to Experiment 1 in the above solution containing 30 mM Tris-HCl buffer (pH7.4), 125 mM sodium chloride, 4 mM potassium chloride, 10 mM glucose and 1.25 mM calcium chloride (dihydrate). At 15 or 30 minutes after the immersion, the reversed canal sac was taken out from the solution and washed with distilled water. The internal sac solution was collected from the resulting sac and admixed with distilled water to give a final volume of 25 ml. The resulting solution was subjected to a calorimetric measurement of calcium content using “CALCIUM TEST C WAKO™” (commercialized by Wako Pure Chemicals Corporation, Osaka, Japan). As a negative control, an external sac solution without saccharides. As a positive control, an external sac solution containing 200 mM maltitol, reported to have the effect on promoting mineral absorption though intestinal canal, instead of cyclic tetrasaccharide were prepared and carried out in the same manner. Speed of calcium absorption (nmol/min·cm^2) and its relative values defining the value of negative control as 100 were calculated.

[2] = test system: reversed canal sac of jejunum; experiment: Calcium absorption in reversed canal sac, jejunum; type: cell-based, Wister rats
Procedure: as §1

[3] = feed supplemented with 1% cyclic tetrasaccharide
[4] = feed supplemented with 2% cyclic tetrasaccharide
[5] = feed supplemented with 5% cyclic tetrasaccharide
[6] = 50 mM saccharide in external sac solution
[7] = 100 mM saccharide in external sac solution
[8] = 200 mM saccharide in external sac solution

## OC[C@H]1O[C@@H]2OC[C@H]3O[C@H](O[C@@H]4[C@@H](O)[C@@H](OC[C@H]5O[C@H](O[C@H]([C@H]2O)[C@@H]1O)[C@H](O)[C@@H](O)[C@@H]5O)O[C@H](CO)[C@H]4O)[C@H](O)[C@@H](O)[C@@H]3O [cyclic tetrasaccharide, cyclo{>6)-α-D-glucopyranosyl-(1>3)-α-D-glucopyranosyl-(1>6)-α-D-glucopyranosyl-(1>3)-α-D-glucopyranosyl-(1>}]
femur; comparing with the control, 1%, 2%, 5% feeds
  amounts of dried bone weight, ash, calcium, magnesium and phosphorus: significantly increased
femur; [3]
  Amount of ash: 0.64 * g/g dry femur
  Amount of calcium in femur: 217 * ^ mg/g dry femur
  Amount of magnesium in femur: 4.3 * mg/g dry femur
  Amount of phosphorus in femur: 115 * ^ mg/g dry femur
  Dry weight of femur: 0.68 * g
femur; [4]
  Amount of ash: 0.65 * g/g dry femur
  Amount of calcium in femur: 225 * ^ mg/g dry femur
  Amount of magnesium in femur: 4.4 * mg/g dry femur
  Amount of phosphorus in femur: 116 * ^ mg/g dry femur
  Dry weight of femur: 0.71 * g
femur; [5]
  Amount of ash: 0.66 * g/g dry femur
  Amount of calcium in femur: 240 * ^ mg/g dry femur
  Amount of magnesium in femur: 4.5 * mg/g dry femur
  Amount of phosphorus in femur: 118 * ^ mg/g dry femur
  Dry weight of femur: 0.71 * g
[1]; [6]
  Absorption speed of calcium in alimentary canal sac, Colon/Rectum: 13.5 ※ nmol/min · cm^2
  Relative value of calcium absorption speed (control = 100), Colon/Rectum: (101)
[1]; [7]
  Absorption speed of calcium in alimentary canal sac, Colon/Rectum: 14.6 *※ nmol/min · cm^2
  Relative value of calcium absorption speed (control = 100), Colon/Rectum: (109)
[1]; [8]
  Absorption speed of calcium in alimentary canal sac, Colon/Rectum: 15.4 *※ nmol/min · cm^2
  Relative value of calcium absorption speed (control = 100), Colon/Rectum: (116)
[1]; reversed sac
  promotion of calcium absorption in colon/rectum: slightly
[2]; [6]
  Absorption speed of calcium in alimentary canal sac, Jejunum: 26.5 *※ nmol/min · cm^2
  Relative value of calcium absorption speed (control = 100), Jejunum: (124)
[2]; [7]
  Absorption speed of calcium in alimentary canal sac, Jejunum: 37.6 *※ nmol/min · cm^2
  Relative value of calcium absorption speed (control = 100), Jejunum: (176)
[2]; [8]
  Absorption speed of calcium in alimentary canal sac, Jejunum: 39.0 *※ nmol/min · cm^2
  Relative value of calcium absorption speed (control = 100), Jejunum: (183)
[2]; reversed sac
  promotion of calcium absorption in jejunum: strongly promoted
